Test results as given in PMC9471048, “The signaling and selectivity of α‐adrenoceptor agonists for the human α2A, α2B and α2C‐adrenoceptors and comparison with human α1 and β‐adrenoceptors” (Pharmacology Research & Perspectives, 2022).
Like-named read-outs stand apart in the source and are kept apart here.

Experiments:
[1] = target: T1, human α2C‐adrenoceptor (Homo sapiens, UniProt P18825); conditions: for Log efficacy ratio (KD/IC50): log KD from 3H‐rauwolscine binding versus CRE‐SPAP log IC50
T1 sequence (P18825 1-462): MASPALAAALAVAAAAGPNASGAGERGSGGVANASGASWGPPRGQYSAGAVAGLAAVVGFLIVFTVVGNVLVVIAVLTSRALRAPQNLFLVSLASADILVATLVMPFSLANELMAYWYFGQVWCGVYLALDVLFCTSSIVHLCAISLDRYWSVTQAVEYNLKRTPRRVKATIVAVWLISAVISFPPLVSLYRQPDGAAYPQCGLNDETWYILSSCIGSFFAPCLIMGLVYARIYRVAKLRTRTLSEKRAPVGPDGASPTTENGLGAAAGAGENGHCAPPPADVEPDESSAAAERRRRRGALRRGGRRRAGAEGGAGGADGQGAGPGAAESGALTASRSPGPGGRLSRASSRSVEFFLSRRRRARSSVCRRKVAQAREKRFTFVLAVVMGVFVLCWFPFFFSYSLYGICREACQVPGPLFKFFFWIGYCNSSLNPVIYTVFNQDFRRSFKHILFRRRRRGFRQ

[2] = target: T1, human α2C‐adrenoceptor; assay: ERK1/2‐phosphorylation in CHO‐α2C cells; assay type: cell-based; set-up: expressed in transfected cells; host or cells: CHO-K1 with CRE-SPAP reporter
[3] = target: T2, human α2A‐adrenoceptor (Homo sapiens, UniProt P08913); conditions: for % inhibition, CRE‐SPAP (with forskolin): % inhibition from the 3 μM forskolin control, inhibition only; for Log efficacy ratio (KD/IC50): binding KD / Gi IC50 of CRE‐SPAP; for % inhibition, CRE-SPAP (with forskolin): from 3 μM forskolin control
T2 sequence (P08913 1-465): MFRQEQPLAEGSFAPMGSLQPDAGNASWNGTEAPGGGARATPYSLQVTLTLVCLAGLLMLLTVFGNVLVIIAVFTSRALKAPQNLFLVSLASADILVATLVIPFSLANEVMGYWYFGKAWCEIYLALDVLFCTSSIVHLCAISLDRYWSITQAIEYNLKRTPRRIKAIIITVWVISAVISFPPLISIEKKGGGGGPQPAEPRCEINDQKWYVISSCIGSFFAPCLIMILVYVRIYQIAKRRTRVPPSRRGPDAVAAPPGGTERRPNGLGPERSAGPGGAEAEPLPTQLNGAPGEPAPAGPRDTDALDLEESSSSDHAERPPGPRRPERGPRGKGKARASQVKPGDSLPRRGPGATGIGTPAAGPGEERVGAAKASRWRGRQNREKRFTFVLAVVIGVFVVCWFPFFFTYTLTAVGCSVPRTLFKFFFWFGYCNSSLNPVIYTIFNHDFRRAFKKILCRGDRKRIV

[4] = target: T2, human α2A‐adrenoceptor; assay: ERK1/2‐phosphorylation in CHO‐α2A cells; assay type: cell-based; set-up: expressed in transfected cells; host or cells: CHO-K1 with CRE-SPAP reporter
[5] = target: T2, human α2A‐adrenoceptor; assay: 3H‐rauwolscine whole cell binding in CHO‐α2A cells; set-up: expressed in transfected cells; host or cells: CHO-K1 with CRE-SPAP reporter
[6] = target: T1, human α2C‐adrenoceptor; assay: 3H‐rauwolscine whole cell binding in CHO‐α2C cells; set-up: expressed in transfected cells; host or cells: CHO-K1 with CRE-SPAP reporter
[7] = CHO‐α2C cells, % inhibition from the 3 μM forskolin control, mean ± SEM
[8] = CHO‐α2C cells, CRE‐SPAP production in the absence of forskolin
[9] = Log IC50 (Gi), CRE‐SPAP (with forskolin), CHO‐α2C cells, inhibition of 3 μM forskolin‐stimulated CRE‐SPAP production, given as negative log IC50, mean ± SEM
[10] = CHO‐α2C cells, maximum response compared to 10 μM PDBu, mean ± SEM
[11] = CHO‐α2C cells, given as negative log EC50, mean ± SEM, read-out: Log EC50, ERK1/2‐phosphorylation (converted)
[12] = CHO‐α2A (cell line 1), absence of forskolin
[13] = CHO‐α2A, maximum response compared to 10 μM PDBu
[14] = CHO‐α2A, read-out: Log EC50, ERK1/2‐phosphorylation (converted)
[15] = 3H‐rauwolscine whole cell binding, living cells, negative log KD, mean ± SEM, read-out: Log KD, CHO‐α2A (converted)
[16] = CHO‐α2A, 3H‐rauwolscine whole cell binding, given as negative log KD, read-out: Log KD (binding) (converted)
[17] = fold, from KD values, 1 = no selectivity
[18] = 3H‐rauwolscine whole cell binding, living cells, negative log KD, mean ± SEM, read-out: Log KD, CHO‐α2C (converted)
[19] = CHO‐α2C cells, 3H‐rauwolscine whole cell binding, given as negative log KD, mean only (SEM in Table 4), read-out: Log KD (converted)
[20] = read-out: Log KD (binding) (converted)
[21] = read-out: Log KD, CHO‐α2A (converted)
[22] = Log IC50 (Gi), CRE‐SPAP (with forskolin), CHO‐α2A (cell line 1, 5830 fmol/mg protein), 3 μM forskolin
[23] = 3H‐rauwolscine whole cell binding, ^app: apparent KD, IC50 from extrapolated curve as not all specific binding was inhibited, read-out: Log KD (apparent), CHO‐α2A (converted)
[24] = 3H‐rauwolscine whole cell binding, ^app: apparent KD, IC50 from extrapolated curve as not all specific binding was inhibited, read-out: Log KD (apparent), CHO‐α2C (converted)

SMILES | % inhibition, CRE‐SPAP (with forskolin) [1, 7] [%] | Log EC50 (Gs), CRE‐SPAP (without forskolin) [1, 8] | Log efficacy ratio (KD/IC50) ([1]; CHO‐α2C cells) | IC50 [1, 9] [µM] | % 10 μM PDBu, ERK1/2‐phosphorylation [2, 10] [%] | EC50 [2, 11] [µM] | % inhibition, CRE‐SPAP (with forskolin) ([3]; CHO‐α2A (cell line 1)) [%] | Log EC50 (Gs), CRE‐SPAP (without forskolin) [3, 12] | Log efficacy ratio (KD/IC50) ([3]; CHO‐α2A) | % 10 μM PDBu, ERK1/2‐phosphorylation [4, 13] [%] | EC50 [4, 14] [µM] | Kd [5, 16] [µM] | Selectivity ratio α2A vs α2B (higher affinity for α2A) [5, 17] | Selectivity ratio α2A vs α2C (higher affinity for α2A) [5, 17] | Kd [6, 18] [µM] | Kd [6, 19] [µM] | Selectivity ratio α2B vs α2C (higher affinity for α2C) [6, 17] | further results
c1ccc(C2CC2)c(OCC2=NCCN2)c1 [Cirazoline] | 74.2 ± 2.1 | No response | 0.41 | 0.331 | 139.1 ± 10.2 | 0.0832 | 43.6 ± 4.4 | No response | −0.16 | 113.0 ± 14.3 | 0.158 | 0.417 | 16.2 | 2.0 | 0.851 | 0.851 | 7.9 | IC50 [3]: 0.603 µM; Kd [5, 15]: 0.417 µM
Cc1cccc([C@H](C)c2cnc[nH]2)c1C [Dexmedetomidine] | – | – | – | – | – | – | – | – | – | – | – | – | – | – | – | – | – | % inhibition, CRE‐SPAP (with forskolin) [1]: 73.4 ± 4.4%; Log EC50 (Gs), CRE‐SPAP (without forskolin) [1]: No response; IC50 ([1]; Log IC50 (Gi), CRE‐SPAP (with forskolin)): 0.000692 µM; % 10 μM PDBu, ERK1/2‐phosphorylation [2]: 153.0 ± 18.5%; EC50 ([2]; read-out: Log EC50, ERK1/2‐phosphorylation (converted)): 0.000263 µM; % 3 μM forskolin, CRE‐SPAP (without forskolin) [3]: 23.6 ± 2.7%; % 10 μM PDBu, ERK1/2‐phosphorylation [4]: 138.5 ± 15.4%; higher affinity for α2 than α1‐adrenoceptor subtypes [5]: 100 fold; Kd ([6]; read-out: Log KD (converted)): 0.0302 µM; Kd ([6]; read-out: Log KD, CHO‐α2C (converted)): 0.0302 µM
CC(CCc1ccc(O)cc1)NCCc1ccc(O)c(O)c1 (stereo not drawn) [Dobutamine] | – | No response | – | – | – | 0.759 | – | No response | – | – | 2 | – | – | – | 5.5 | 5.5 | – | IC50 [1]: 20.9 µM; Log IC50 (Gi), CRE‐SPAP (with forskolin) ([3]; CHO‐α2A (cell line 1, 5830 fmol/mg protein), 3 μM forskolin): No response; Kd [5, 20]: 20.4 µM; Kd [5, 21]: 20.4 µM
CN[C@@H](C)[C@H](O)c1ccccc1 [Ephedrine] | – | – | – | – | – | – | – | – | – | – | – | – | – | – | – | – | – | Log EC50 (Gs), CRE‐SPAP (without forskolin) [1]: No response; Log IC50 (Gi), CRE‐SPAP (with forskolin) [1]: No response; % 10 μM PDBu, ERK1/2‐phosphorylation [2]: 88.0 ± 12.5%; EC50 [2]: 33.1 µM; Log EC50 (Gs), CRE‐SPAP (without forskolin) [3]: No response; Log IC50 (Gi), CRE‐SPAP (with forskolin) [3]: No response; % 10 μM PDBu, ERK1/2‐phosphorylation [4]: 123.1 ± 17.3%; EC50 [4]: 16.6 µM; Kd [5]: 34.7 µM; Selectivity ratio α2A vs α2B (higher affinity for α2A) [5]: 4.2; Selectivity ratio α2A vs α2C (higher affinity for α2A) [5]: 1.1; Kd ([5]; Log KD, CHO‐α2A): 34.7 µM; Kd [6]: 39.8 µM; Selectivity ratio α2B vs α2C (higher affinity for α2C) [6]: 3.6; Kd ([6]; Log KD, CHO‐α2C): 39.8 µM
CCNCC(O)c1cccc(O)c1 (stereo not drawn) [Etilefrine] | 86.2 ± 7.2 | No response | 1.01 | 12 | 182.2 ± 9.6 | 3.16 | 101.3 ± 4.6 | No response | 0.61 | 150.8 ± 10.2 | 3.24 | 195 | 2.1 | – | – | 123 | 3.4 | IC50 [3, 22]: 47.9 µM; Kd [5, 23]: 195 µM; Kd [6, 24]: 123 µM; Selectivity ratio α2A vs α2C (higher affinity for α2C) [6, 17]: 1.6
C[C@H](N)[C@H](O)c1cccc(O)c1 [Metaraminol] | 85.5 ± 1.8 | No response | 1.56 | – | 158.8 ± 22.2 | 0.158 | 87.0 ± 1.3 | No response | 1.22 | 136.4 ± 13.9 | 0.24 | – | 1.5 | – | 28.8 | 28.8 | 2.7 | IC50 [1]: 0.794 µM; IC50 [3]: 3.16 µM; Kd [5, 20]: 52.5 µM; Kd [5, 21]: 52.5 µM; Selectivity ratio α2A vs α2C (higher affinity for α2C) [6, 17]: 1.8
COc1ccc(OC)c(C(O)C(C)N)c1 (stereo not drawn) [Methoxamine] | 72.3 ± 13.6 | No response | 1.01 | 11 | 131.0 ± 19.2 | 2.34 | – | No response | – | 120.9 ± 29.4 | 6.03 | 93.3 | 2.5 | 1.2 | – | 112 | 2.1 | IC50 ([3]; IC50 (Gi), CRE‐SPAP (with forskolin), CHO‐α2A, 3 μM forskolin): > 100 µM; Kd [5, 23]: 93.3 µM; Kd [6, 24]: 112 µM
c1ccc2c(CC3=NCCN3)cccc2c1 [Naphazoline] | 81.3 ± 4.2 | No response | 0.72 | 0.0759 | 157.8 ± 12.6 | 0.0126 | 83.1 ± 3.6 | No response | 0.78 | 118.1 ± 9.0 | 0.00191 | 0.0977 | 16.2 | 4.1 | 0.398 | 0.398 | 4.0 | % inhibition, CRE-SPAP (with forskolin) ([3]; CHO-α2A cell line 2, 4724 fmol/mg protein): 69.4 ± 5.8%; % inhibition, CRE-SPAP (with forskolin) ([3]; CHO-α2A cell line 3, 121 fmol/mg protein): 24.8 ± 4.3%; IC50 ([3]; Log IC50 (Gi), CRE-SPAP (with forskolin), CHO-α2A cell line 2, expression 4724 fmol/mg protein, 3 μM forskolin): 0.0575 µM; IC50 ([3]; Log IC50 (Gi), CRE-SPAP (with forskolin), CHO-α2A cell line 3, expression 121 fmol/mg protein, 3 μM forskolin): 0.417 µM; IC50 [3, 22]: 0.0162 µM; Kd [5, 15]: 0.0977 µM
